pKi: −log10 of the molar value.

Carbonic anhydrase 12, sequence (O43570 whole entry): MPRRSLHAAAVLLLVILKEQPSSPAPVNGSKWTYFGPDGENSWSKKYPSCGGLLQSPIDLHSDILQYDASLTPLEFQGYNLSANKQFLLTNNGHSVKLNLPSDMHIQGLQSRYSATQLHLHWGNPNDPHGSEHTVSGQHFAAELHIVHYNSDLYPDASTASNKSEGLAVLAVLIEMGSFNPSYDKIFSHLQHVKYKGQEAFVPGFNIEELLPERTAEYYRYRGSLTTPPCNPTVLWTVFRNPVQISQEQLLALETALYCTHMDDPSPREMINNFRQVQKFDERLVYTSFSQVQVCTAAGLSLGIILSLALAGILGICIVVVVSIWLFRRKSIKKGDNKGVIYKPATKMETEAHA

This experiment concerns the target Carbonic anhydrase 12 (Homo sapiens, UniProt O43570).
A word on the pKi: it is the negative decadic logarithm of the Ki, by convention in mol/L. Low readings indicate a large Ki, high ones a small Ki. In the case of `CNc1ccc(S(N)(=O)=O)cc1`, the pKi was 7.43. `Nc1ccc(S(=O)(=O)Nc2nnc(S(N)(=O)=O)s2)cc1` showed a pKi of 7.07.

Compound `Nc1ccc(S(N)(=O)=O)cc1Br` had a pKi of 7.70.

Turning to `Cc1ccc(S(N)(=O)=O)cc1` [P-TOLUENESULFONAMIDE], the pKi was 8.74. Against the preceding compound, the pKi is 1.04 log units higher. The compound `NS(=O)(=O)c1ccc(CCO)cc1` had a pKi of 7.26. Turning to `Nc1ccccc1S(N)(=O)=O`, the pKi was 9.07. This pKi lies 1.81 log units higher than the previous one. `Nc1ccc(S(N)(=O)=O)cc1Cl` showed a negative logarithm of the Ki (pKi) of 8.51. The same measure for `NCc1ccc(S(N)(=O)=O)cc1` [MAFENIDE]: 9.52; for `NNc1ccccc1S(N)(=O)=O`: 7.24. As for `NS(=O)(=O)c1ccc(CO)cc1`, the negative-log Ki (pKi) was 6.66. In turn, `NS(=O)(=O)c1nnc(-c2ccccc2Cl)s1` had a pKi of 7.44. The same measure for `Nc1ccc(S(N)(=O)=O)cc1I`: 7.96. In the case of `N[S+]([O-])c1ccc(S(=O)(=O)Nc2cccc3c(Cl)c[nH]c23)cc1` (stereo not given), the pKi is 8.47. `Cn1nc(S(N)(=O)=O)sc1=N` had a pKi of 8.40. The same measure for `Nc1ccc(S(=O)(=O)NCCc2ccc(S(N)(=O)=O)cc2)cc1`: 8.35; for `Nc1ccc(S(=O)(=O)NCc2ccc(S(N)(=O)=O)cc2)cc1`: 8.46; for `Nc1ccc(S(N)(=O)=O)cc1F`: 8.96.

Regarding `NS(=O)(=O)c1ccc(C(=O)O)cc1` [CARZENIDE], the pKi was 7.47. Take `Nc1nccc(Nc2ccc(S(N)(=O)=O)cc2)n1`: the pKi is 8.47. This pKi is 1.00 log units higher than that of the compound before. The value for `CN(N)c1ccc(S(N)(=O)=O)cc1` was 7.96.
